Measurements: patent publication US12180200B1, “2-(benzo[d]oxazol-2-yl)-n′-(isonicotinoyloxy)acetimidamide as an antimicrobial compound” (KING FAISAL UNIVERSITY, priority 2023, dated 2024)

Columns and labels:
Type in all cases: cell-based
[1] = system: Escherichia coli; experiment: Agar plate disc-diffusion, antibacterial activity
Protocol: (§1) The agar plate disc-diffusion method was applied. […] The discs were then placed onto the surface of agar plates (nutrient agar for bacteria and Sabouraud's dextrose agar for fungi) seeded with the test organism. Each plate contained 15 mL of the agar medium, previously seeded with 0.2 mL of the broth culture of each organism pregrown for 18 hours. The plates were incubated at 37° C. for 48 hours, and 72 hours for fungi. The inhibition zones was measured in mm. Discs impregnated with DMSO were used as a control, and its inhibition zone was subtracted from the tested compound actual inhibition zone.

[2] = system: Bacillus cereus; experiment: Agar plate disc-diffusion, antibacterial activity
Protocol: as §1

[3] = system: Staphylococcus aureus; experiment: Agar plate disc-diffusion, antibacterial activity
Protocol: as §1

[4] = system: Pseudomonas aeruginosa; experiment: Agar plate disc-diffusion, antibacterial activity
Protocol: as §1

[5] = system: different microbes; experiment: Antimicrobial activity screening (overall statement); settings: against different microbes (bacteria and fungi of Tables 1 and 2)
Protocol: The agar plate disc-diffusion method was applied. Sterilized filter papers (6 mm in diameter) were wetted with 10 μL of a solution 2-(benzo[d]oxazol-2-yl)-N′-(isonicotinoyloxy)acetimidamide (3) to be tested, containing 10 mg/mL in DMSO, and the discs were allowed to air dry. The discs were then placed onto the surface of agar plates (nutrient agar for bacteria and Sabouraud's dextrose agar for fungi) seeded with the test organism. Each plate contained 15 mL of the agar medium, previously seeded with 0.2 mL of the broth culture of each organism pregrown for 18 hours. The plates were incubated at 37° C. for 48 hours, and 72 hours for fungi. The inhibition zones was measured in mm. Discs impregnated with DMSO were used as a control, and its inhibition zone was subtracted from the tested compound actual inhibition zone.

[6] = system: Chrysosporium keratinophilum; experiment: Agar plate disc-diffusion, antifungal activity
Protocol: as §1

[7] = system: Aspergillus flavus; experiment: Agar plate disc-diffusion, antifungal activity
Protocol: as §1

[8] = A = concentration of comp. = 10,000 μL
[9] = B = concentration of comp. = 30,000 μL
[10] = C = concentration of comp. = 50,000 μL

Row | SMILES | inhibition zone [1, 8] [mm] | inhibition zone [1, 9] [mm] | inhibition zone [1, 10] [mm] | inhibition zone [2, 8] [mm] | inhibition zone [2, 9] [mm] | inhibition zone [2, 10] [mm] | inhibition zone [3, 8] [mm] | inhibition zone ([3]; B =) [mm] | inhibition zone [3, 10] [mm] | inhibition zone [4, 8] [mm] | inhibition zone [4, 9] [mm] | inhibition zone [4, 10] [mm] | antimicrobial activities [5] | inhibition zone [6, 8] [mm] | inhibition zone [6, 9] [mm] | inhibition zone [6, 10] [mm] | inhibition zone [7, 8] [mm] | inhibition zone [7, 9] [mm] | inhibition zone [7, 10] [mm]
1 | N/C(Cc1nc2ccccc2o1)=N\OC(=O)c1ccncc1 [Compound 3, 2-(benzo[d]oxazol-2-yl)-N′-(isonicotinoyloxy)acetimidamide] | 27 | 36 | 52 | 25 | 27 | 36 | 17 | 24 | 30 | 25 | 29 | 50 | excellent antimicrobial activities | 26 | 29 | 48 | 20 | 24 | 35
2 | O=C(O)c1cn(C2CC2)c2cc(N3CCNCC3)c(F)cc2c1=O [Cip., ciprofloxacin, reference compound] | 30 | 39 | 60 | 29 | 30 | 42 | 43 | 44 | 53 | 29 | 30 | 53 |  | 29 | 30 | 53 | 29 | 30 | 42
